# Test results as given in PMC7083880 (Nature Communications, 2020).
# Like-named read-outs stand apart in the source and are kept apart here.
# Tests used:
# [1] = test system: endogenous TP53 gene with UAG nonsense mutation in Caco-2 cells; experiment: p53 protein western blot, Caco-2 cells; assay type: cell-based, human; conditions: Caco-2 (UAG); 24 h
# Protocol: After 24 h of treatment, proteins were extracted from the cells and the p53 protein was assessed by western blotting (Fig. 2a). After DMSO mock treatment, as anticipated, no p53 protein was detected, because of the presence of the PTC in p53 mRNA[33].
# The three leftmost lanes show twofold serial dilutions of untreated HeLa cell extract. The molecular weight is indicated to the left of each gel. b Schematic representation of the construct used to measure the function of p53. The construct carries a cDNA encoding the firefly luciferase under a promoter having two p53-responsive elements (underlined). […] The level of p21 mRNA is related to the amount of functional p53 protein synthesized in the cell. The results presented in panels b and c are representative of at least two independent experiments., p-values (p) were calculated using Student’s t-test. Source data are provided as a Source Data file. […]
# The equivalent of 2.5 × 10^5 cells was subjected to 10% SDS–PAGE before transfer of the proteins to a nitrocellulose membrane. […] Antibodies were then detected with Super Signal West Femto Maximum Sensitivity Substrate (Pierce-Biotechnology, Rockford, IL, USA). Quantifications were performed with QuantityOne software (Biorad). […]
# [2] = test system: Calu-6 cell tumors (TP53 UGA nonsense mutation) in nude mice; assay type: in vivo; design: tumor size, Average: unit not given here
# Protocol: For each experimental condition, 7 mice were used. b Fourteen nude mice were injected with Calu-6 cells to promote tumor development. […] The arrow indicates the starting time of the exposure to DMSO or DAP. For each experimental condition, 7 mice were used. […] GAPDH was used as loading control. A molecular weight marker is indicated to the left of the gel. The results presented in this figure are representative of two independent experiments. p-values (p) were calculated using Student’s t-test. Source data are provided as a Source Data file.
# Next, the capacity of DAP to correct UGA nonsense mutations in vivo was assessed in a mouse model. Four-week-old immunodeficient nude mice were injected with an identical number of Calu-6 cells carrying a UGA nonsense mutation in the TP53 gene, of HCC-GR6 cells having a wild-type TP53 gene or of p53-null 4T1 cells. […] The slower growth of Calu-6-cell-derived tumors in DAP-treated mice is thus likely due to rescue of p53 protein synthesis in these tumors, as expected on the basis of our cell culture experiments and as observed after western-blotting applied to protein extracts of tumors from DAP-treated mice (Supplementary Fig. 8B). Because of the small size of the Calu-6 tumors in DAP-treated mice and thus the high probability of collecting mouse cells upon tumor excision, quantitation of p53 was done in another experiment.
# To initiate tumor growth, 6-week-old nude mice received subcutaneously 10 million cells suspended in PBS. […] Tumors were measured three times weekly for 5 weeks to determine the tumor volume by the following formula: l (mm) × L (mm) × L (mm). The tumors were then collected and a fraction was used for western blot analysis after protein extraction. All in vivo experiments complied with all relevant ethical regulations for animal testing and research and were authorized by the Ethic Committee 075 under the number 12971-2018010815336092.
# [3] = test system: Calu-6 cell tumors in nude mice; experiment: In vivo established Calu-6 tumors: tumor size and p53 western blot; design: species or system mouse; conditions: DAP for 1 week after tumor size about 0.4 cm^3
structure (smiles),measurement,setting,value
"Nc1nc(N)c2[nH]cnc2n1 [DAP, 2,6-diaminopurine]",Synthesis of p53 protein (western blot),[1],not in Caco-2 cells
same,"tumor size, Average","[2]; Calu-6, day 4, average of 7 mice",0.07457
same,"tumor size, Average","[2]; Calu-6, day 6, average of 7 mice",0.06657
same,"tumor size, Average","[2]; Calu-6, day 9, average of 7 mice",0.067
same,"tumor size, Average","[2]; Calu-6, day 11, average of 7 mice",0.05029
same,"tumor size, Average","[2]; Calu-6, day 13, average of 7 mice",0.039
same,"tumor size, Average","[2]; Calu-6, day 16, average of 7 mice",0.037
same,"tumor size, Average","[2]; Calu-6, day 18, average of 7 mice",0.03471
same,"tumor size, Average","[2]; Calu-6, day 20, average of 7 mice",0.06171
same,"tumor size, Average","[2]; Calu-6, day 23, average of 7 mice",0.07814
same,"tumor size, Average","[2]; Calu-6, day 25, average of 7 mice",0.06286
same,"tumor size, Average","[2]; Calu-6, day 27, average of 7 mice",0.07829
same,"tumor size, Average","[2]; Calu-6, day 30, average of 7 mice",0.09486
same,"tumor size, Average","[2]; Calu-6, day 32, average of 7 mice",0.1364
same,"tumor size, Average","[2]; Calu-6, day 34, average of 7 mice",0.1461
same,"tumor size, Average","[2]; Calu-6, day 37, average of 7 mice",0.1584
same,"tumor size, Average","[2]; Calu-6, day 39, average of 7 mice",0.2454
same,"tumor size, Average","[2]; Calu-6, day 41, average of 7 mice",0.2229
same,"Tumor growth vs DMSO, in words","[2]; Calu-6, nude mice, force-fed daily, 5 weeks",strongly impaired tumor growth
same,Toxicity in a mouse model,"[2]; mouse, in vivo, po",no detectable toxicity
same,p53 protein in tumors (western blot),[3],detected in tumors isolated from DAP-fed
